Measurements as given in US9757408B2 (Hayashibara Co., Ltd., priority 2010, dated 2017).
pIC50: −log10 of the molar value. Marks after values point to notes of the source that are not given here.

How the values were obtained:
[1] = tested on: IFN-γ production of spleen cells; assay: IFN-γ production of spleen cells stimulated with anti-CD3 antibody, from gel-treated mice (Experiment 16); type: in vivo, NC/Nga mice; conditions: for production level of IFN-γ of spleen cells stimulated with the anti-CD3 antibody: compared to mice applied with gel prepared by adding refined water (Experiment group 1); for Content of IFN-γ: supernatant of spleen cells stimulated with anti-CD3 antibody, picryl chloride-sensitized mice applied with gel
Protocol: (§1) On Friday of the 6th week of the induction (46th day after initiating the application), all the mice were sacrificed, followed by isolating their spleens and collecting spleen cells in usual manner. […] To each well 2 μg/mL of “Purified Mouse CD3ε Monoclonal Antibody”, a product name of an anti-CD3 antibody, commercialized by Cosmo Bio Co., Ltd., Tokyo, Japan, was added, and the cells were incubated at 37° C. for three days in a 5% v/v CO2 incubator, followed by assaying the levels of cytokines in each supernatant thereof.
(§2) The results are in Table 19 in parallel.

[2] = tested on: PGE2 production from mouse intraperitoneal macrophages; assay: IC50 for PGE2 production from mouse macrophages, LPS + IFN-γ (Experiment 19); type: cell-based; conditions: for pIC50: Mus musculus, Macrophage, 20 h, read-out: IC50 Concentration PGE2
Text: (§3) After completion of the culture, the supernatant in each well was collected and assayed for cytokines and prostaglandin E2 (called “PGE2”, hereinafter) with ELISA.

[3] = tested on: IL-1α production from NHEK cells; assay: IL-1α production from NHEK cells irradiated with ultraviolet B (Experiment 17); type: cell-based, human; conditions: for IL-1α: NHEK cells, stimulation by ultraviolet rays; for production of IL-1α from NHEK cells augmented by ultraviolet rays: UVB 40 mJ/cm^2, supernatant at six hours
Protocol: “CELLMATRIX TYPE IV”, a product name of collagen for tissue culture commercialized by Nitta Gelatin Inc., Osaka, Japan, which had been diluted with PBS(K-) by 10 times, was previously placed in “FALCON 35-3001”, a product name of 35 mm petri dish commercialized by Becton Dickinson and Company, NJ, USA, in an amount of 1 mL/plate, and then allowed to stand at ambient temperature for 10 min, followed by removing an excessive amount of CELLMATRIX, drying the petri dish in air, and washing it thrice with PBS(K-). […] The cells were cultured at 37° C. in a 5% v/v CO2 incubator. On the 2nd and 4th days after the cell inoculation, the medium was replaced with EpiLife medium free of EDGS (1 mL/plate). On the 5th day after the cell inoculation, the supernatant was removed, and the petri dish was washed twice by adding 1 mL/petri dish of Hanks' balanced salt solution (called “HBSS (−) buffer”, hereinafter). Further, 2 mL/petri dish of HBSS (−) buffer was added to the petri dish which was then placed in the position 15 cm apart from an ultraviolet ray light source and irradiated with 40 mJ/cm^2 of ultraviolet B radiation. […] As an ultraviolet ray light source, “NS-8F”, a light source for actual use commercialized by Sanwa Medical Co., Ltd., Okayama, Japan, equipped with an ultraviolet B radiation lamp was used, and the radiation dose was measured on “UVR-305/365D (II)”, an ultraviolet ray meter commercialized by Topcon Corporation, Tokyo, Japan. TNF-α was assayed by the same method as in Experiment 2. The remaining other cytokines were assayed with an IL-1α assay kit, commercialized by R & D Systems Inc., MN, USA, and an IL-8 assay kit commercialized by BioLegend, CA, USA.

[4] = tested on: mouse with severe acute pancreatitis induced by choline-deficient ethionine-added feed; assay: Severe acute pancreatitis induced by choline-deficient ethionine-added feed, survival (Experiment 15); type: in vivo, CD1(ICR) mice
Text: After seven days of a preliminary breeding, the mice were fasted for one day and allowed to freely take a choline-deficient ethionine-added feed, produced by Oriental Yeast Co., Ltd., Tokyo, Japan, for three days from the next day. Thereafter, the mice were fed on normal feed again and then fed on the choline-deficient ethionine-added feed. […] Eight mice in the remaining one group as a control were orally administered through a gastric tube with distilled water twice a day every morning and evening in a liquid volume of 0.2 mL/head/shot from the initiation of fasting. The survival number of mice in each group was macroscopically confirmed up to seven days from the initiation of taking the choline-deficient ethionine-added feed, and the survival rate (%) of mice in each group was determined. The survival rate (%) of mice was determined similarly as in Experiment 1.

[5] = tested on: IL-6 production of spleen cells; assay: IL-6 production of spleen cells stimulated with anti-CD3 antibody, from gel-treated mice (Experiment 16); type: in vivo, NC/Nga mice; conditions: for production level of IL-6 of spleen cells stimulated with the anti-CD3 antibody: compared to mice applied with gel prepared by adding refined water (Experiment group 1); for Content of IL-6: supernatant of spleen cells stimulated with anti-CD3 antibody, picryl chloride-sensitized mice applied with gel
Protocol: as §1, §2

[6] = tested on: IL-6 production from mouse intraperitoneal macrophages; assay: IC50 for IL-6 production from mouse macrophages, LPS + IFN-γ (Experiment 19); type: cell-based; conditions: for pIC50: Mus musculus, Macrophage, 20 h, read-out: IC50 Concentration IL-6
Text: as §3

[7] = oral 124 mg/kg body weight/shot twice a day
[8] = mouse intraperitoneal macrophages stimulated with LPS and IFN-γ
[9] = oral 46 mg/kg body weight/shot twice a day
[10] = oral 139 mg/kg body weight/shot twice a day

Compound: Nc1ncnc2c1ncn2[C@@H]1O[C@H](CO)[C@@H](O)[C@H]1O [AN, adenosine]
- production level of IFN-γ of spleen cells stimulated with the anti-CD3 antibody [1]: showed no difference
- Content of IFN-γ [1]: 12.1 pg/mL
- pIC50 [2]: < 3.70
- IL-1α ([3]; 1 μM): 243 pg/mL
- IL-1α ([3]; 5 μM): 244 pg/mL
- IL-1α ([3]; 10 μM): 239 pg/mL
- production of IL-1α from NHEK cells augmented by ultraviolet rays [3]: did not influence
- Survival rate (%) of mice, 48 Hours [4, 7]: 100.0%
- Survival rate (%) of mice, 70 Hours [4, 7]: 20.0%
- Survival rate (%) of mice, 78 Hours [4, 7]: 50.0%
- Survival rate (%) of mice, 94 Hours [4, 7]: 25.0%
- Survival rate (%) of mice, 102 Hours [4, 7]: 12.5%
- Survival rate (%) of mice, 144 Hours [4, 7]: 12.5%
- production level of IL-6 of spleen cells stimulated with the anti-CD3 antibody [5]: showed no difference
- Content of IL-6 [5]: 192 ng/mL
- pIC50 [6]: 4.30

Compound: Nc1c2ncn([C@@H]3O[C@H](CO)[C@@H](O)[C@H]3O)c2nc[n+]1[O-] [ANO, adenosine N1-oxide]
- production level of IFN-γ of spleen cells stimulated with the anti-CD3 antibody [1]: significantly lower
- Content of IFN-γ [1]: 8.75* pg/mL
- pIC50 [2]: 5.92
- inhibitory action on the production of PGE2 (in words) [2, 8]: showed an inhibitory action
- IL-1α ([3]; 1 μM): 203 pg/mL
- IL-1α ([3]; 5 μM): 173 pg/mL
- IL-1α ([3]; 10 μM): 140 pg/mL
- production of IL-1α from NHEK cells augmented by ultraviolet rays [3]: inhibited
- Survival rate (%) of mice, 48 Hours [4, 9]: 100.0%
- Survival rate (%) of mice, 70 Hours [4, 9]: 100.0%
- Survival rate (%) of mice, 78 Hours [4, 9]: 50.0%
- Survival rate (%) of mice, 94 Hours [4, 9]: 25.0%
- Survival rate (%) of mice, 102 Hours [4, 9]: 12.5%
- Survival rate (%) of mice, 144 Hours [4, 9]: 12.5%
- Survival rate (%) of mice, 48 Hours [4, 10]: 100.0%
- Survival rate (%) of mice, 70 Hours [4, 10]: 87.5%
- Survival rate (%) of mice, 78 Hours [4, 10]: 75.0%
- Survival rate (%) of mice, 94 Hours [4, 10]: 75.0%
- Survival rate (%) of mice, 102 Hours [4, 10]: 75.0%
- Survival rate (%) of mice, 144 Hours [4, 10]: 75.0%
- production level of IL-6 of spleen cells stimulated with the anti-CD3 antibody [5]: significantly lower
- Content of IL-6 [5]: 129* ng/mL
- pIC50 [6]: 6.05
- inhibition of the production of IL-6 (in words) [6, 8]: strongly inhibited

Compound: OC[C@H]1O[C@@H](n2cnc3c(O)ncnc32)[C@H](O)[C@@H]1O [IN, inosine]
- production level of IFN-γ of spleen cells stimulated with the anti-CD3 antibody [1]: showed no difference
- Content of IFN-γ [1]: 13.2 pg/mL
- pIC50 [2]: < 3.70
- IL-1α ([3]; 1 μM): 246 pg/mL
- IL-1α ([3]; 5 μM): 243 pg/mL
- IL-1α ([3]; 10 μM): 228 pg/mL
- production of IL-1α from NHEK cells augmented by ultraviolet rays [3]: did not influence
- Survival rate (%) of mice, 48 Hours [4, 7]: 100.0%
- Survival rate (%) of mice, 70 Hours [4, 7]: 60.0%
- Survival rate (%) of mice, 78 Hours [4, 7]: 62.5%
- Survival rate (%) of mice, 94 Hours [4, 7]: 50.0%
- Survival rate (%) of mice, 102 Hours [4, 7]: 25.0%
- Survival rate (%) of mice, 144 Hours [4, 7]: 12.5%
- production level of IL-6 of spleen cells stimulated with the anti-CD3 antibody [5]: showed no difference
- Content of IL-6 [5]: 150 ng/mL
- IC50 Concentration IL-6 ([6]; mouse macrophages, LPS and IFN-γ, 20 hours): Enhanced
